Source: US9006442B2, “Cannabinoid receptor modulators” (Lupin Limited, priority 2011, dated 2015)
Where two headings read alike, the source gives them in different places.

Target: hCB2 (Homo sapiens, UniProt P34972)
Experiment: cAMP determination in functional hCB2-CHO stable cells (HTRF)
Assay type: cell-based
Experimental: In-Vitro Assay Method for Determination of cAMP in Functional hCB2—CHO Stable Cells:
Recombinant CHO-hCB2 cells (procured from Perkin Elmer Inc. USA) were propagated and maintained in Ham's F-12 complete medium containing 10% heat inactivated FBS (Sigma.UK) and 1× penstrep. For assay, 0.1×10^6 to 1.0×10^6 CHO-hCB2 cells were seeded in T-25 flask and grown to mid-log phase in culture media without antibiotics for 2-3 days. […] The test is performed in 96^1/2 area black well plates. For agonist testing, 20 μl cells/well were mixed with 20 μl of sample and 10 μl of forskolin (with final concentration of 10 μM) and incubated for 20 to 40 min at room temperature in incubator. The plate was then processed for the cAMP determination using cAMP Femto-2 HTRF kit (Cisbio, Germany) as per the manual.
The concentration of compound required to stimulate a half-maximal response (EC50) was determined using the GraphPad Prism software (version 5).

[1] = CHO-hCB2 cells, cAMP, forskolin 10 μM, agonist testing, read-out: EC50 Range

hCB2, sequence (P34972 whole entry): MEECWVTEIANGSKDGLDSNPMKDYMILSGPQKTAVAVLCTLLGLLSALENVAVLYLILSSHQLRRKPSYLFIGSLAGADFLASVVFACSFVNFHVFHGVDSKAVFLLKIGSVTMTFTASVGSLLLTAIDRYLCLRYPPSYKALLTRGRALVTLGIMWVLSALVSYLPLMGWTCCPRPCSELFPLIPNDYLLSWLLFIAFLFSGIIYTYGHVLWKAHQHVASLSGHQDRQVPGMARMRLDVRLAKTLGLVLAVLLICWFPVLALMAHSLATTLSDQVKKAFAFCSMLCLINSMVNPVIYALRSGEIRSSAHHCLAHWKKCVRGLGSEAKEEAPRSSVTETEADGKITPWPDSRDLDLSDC

## Cc1cccc2c(Nc3cc(F)cc(F)c3)ncc(C(=O)N3CCOCC3)c12 [Example-3, (1-((3,5-Difluorophenyl)amino)-5-methylisoquinolin-4-yl)(morpholino)methanone]
[1]
  EC50: < 10 nM

## Cc1cccc2c(Nc3ccc(F)cc3)ncc(C(=O)N3CCOCC3)c12 [Example-5, (1-((4-Fluorophenyl)amino)-5-methylisoquinolin-4-yl)(morpholino)methanone]
[1]
  EC50: 10 to 1000 nM

## Cc1cccc2c(Nc3ccc(F)c(C(F)(F)F)c3)ncc(C(=O)N3CCOCC3)c12 [Example-6, (1-((4-Fluoro-3-(trifluoromethyl)phenyl)amino)-5-methylisoquinolin-4-yl)(morpholino)methanone]
[1]
  EC50: < 10 nM

## Cc1cccc2c(Nc3ccc(F)cc3F)ncc(C(=O)N3CCOCC3)c12 [Example-7, (1-((2,4-Difluorophenyl)amino)-5-methylisoquinolin-4-yl)(morpholino)methanone]
[1]
  EC50: 10 to 1000 nM

## Cc1cccc2c(Nc3cccc(CF)c3)ncc(C(=O)N3CCOCC3)c12 [Example-12, (1-(((3-Fluoromethyl)phenyl)amino)-5-methylisoquinolin-4-yl)(morpholino)methanone]
  EC50: 10 to 1000 nM

## Cc1cccc2c(Nc3cccc(F)c3)ncc(C(=O)N3CCCCC3)c12 [Example-21, (1-((3-Fluorophenyl)amino)-5-methylisoquinolin-4-yl)(piperidino)methanone]
  EC50: < 10 nM

## Cc1cccc2c(Nc3cccc(C(F)(F)F)c3)ncc(C(=O)N3CCCCC3)c12 [Example-23, (5-Methyl-1-(((3-trifluoromethyl)phenyl)amino)isoquinolin-4-yl)(piperidin-1-yl)methanone]
  EC50: < 10 nM

## Cc1cccc2c(Nc3cc(F)cc(F)c3)ncc(C(=O)N3CCCCC3)c12 [Example-24, (1-((3,5-Difluorophenyl)amino)-5-methylisoquinolin-4-yl)(piperidin-1-yl)methanone]
[1]
  EC50: < 10 nM

## Cc1cccc2c(Nc3ccc(F)c(C(F)(F)F)c3)ncc(C(=O)N3CCCCC3)c12 [Example-27, (1-((4-Fluoro-3-(trifluoromethyl)phenyl)amino)-5-methylisoquinolin-4-yl)(piperidin-1-yl)methanone]
  EC50: < 10 nM

## Cc1cccc2c(Nc3cc(F)c(F)cc3F)ncc(C(=O)N3CCCCC3)c12 [Example-28, (1-((2,4,5-Trifluorophenyl)amino)-5-methylisoquinolin-4-yl)(piperidin-1-yl)methanone]
[1]
  EC50: < 10 nM

## Cc1cccc2c(Nc3ccc(F)cc3F)ncc(C(=O)N3CCCCC3)c12 [Example-29, (1-((2,4-Difluorophenyl)amino)-5-methylisoquinolin-4-yl)(piperidin-1-yl)methanone]
[1]
  EC50: < 10 nM

## Cc1cccc2c(Nc3cccc(F)c3F)ncc(C(=O)N3CCCCC3)c12 [Example-33, (1-((2,3-Difluorophenyl)amino)-5-methylisoquinolin-4-yl)(piperidin-1-yl)methanone]
[1]
  EC50: < 10 nM

## Cc1cccc2c(Nc3cc(F)ccc3F)ncc(C(=O)N3CCCCC3)c12 [Example-34, (1-((2,5-Difluorophenyl)amino)-5-methylisoquinolin-4-yl)(piperidin-1-yl)methanone]
[1]
  EC50: < 10 nM

## Cc1cccc2c(Nc3cccc(CF)c3)ncc(C(=O)N3CCCCC3)c12 [Example-37, (1-((3-(Fluoromethyl)phenyl)amino)-5-methylisoquinolin-4-yl)(piperidin-1-yl)methanone]
[1]
  EC50: < 10 nM

## Cc1cccc2c(Nc3ccc(F)c(Cl)c3)ncc(C(=O)N3CC4CC(C3)O4)c12 [Example-60, 6-Oxa-3-azabicyclo[3.1.1]heptan-3-yl(1-((3-chloro-4-fluorophenyl)amino)-5-methylisoquinolin-4-yl)methanone]
  EC50: 10 to 1000 nM

## Cc1cccc2c(Nc3cccc(Cl)c3F)ncc(C(=O)N3CC4CC(C3)O4)c12 [Example-61, 6-Oxa-3-azabicyclo[3.1.1]heptan-3-yl(1-((3-chloro-2-fluorophenyl)amino)-5-methylisoquinolin-4-yl)methanone]
  EC50: < 10 nM

## Cc1c(Cl)cccc1Nc1ncc(C(=O)N2CC3CC(C2)O3)c2c(C)cccc12 [Example-65, 6-Oxa-3-azabicyclo[3.1.1]heptan-3-yl(1-((3-chloro-2-methylphenyl)amino)-5-methylisoquinolin-4-yl)methanone]
  EC50: < 10 nM

## Cc1cccc2c(Nc3cccc(Cl)c3)ncc(C(=O)N3CC4CC4C3)c12 (stereo not drawn) [Example-75, 3-Azabicyclo[3.1.0]hexan-3-yl(1-((3-chlorophenyl)amino)-5-methylisoquinolin-4-yl)methanone]
  EC50: < 10 nM

## Cc1c(F)cccc1Nc1ncc(C(=O)N2CC3CC3C2)c2c(C)cccc12 (stereo not drawn) [Example-77, 3-Azabicyclo[3.1.0]hexan-3-yl(1-((3-fluoro-2-methylphenyl)amino)-5-methylisoquinolin-4-yl)methanone]
[1]
  EC50: < 10 nM

## Cc1cc(Nc2ncc(C(=O)N3CCOCC3)c3c(C)cccc23)ccc1F [Example-85, (1-((4-Fluoro-3-methylphenyl)amino)-5-methylisoquinolin-4-yl)(morpholino)methanone]
[1]
  EC50: < 10 nM

## Cc1c(Cl)cccc1Nc1ncc(C(=O)N2CCOCC2)c2c(C)cccc12 [Example-87, (1-((3-Chloro-2-methylphenyl)amino)-5-methylisoquinolin-4-yl)(morpholino)methanone]
  EC50: < 10 nM

## Cc1ccc(Cl)cc1Nc1ncc(C(=O)N2CCOCC2)c2c(C)cccc12 [Example-88, (1-((5-Chloro-2-methylphenyl)amino)-5-methylisoquinolin-4-yl)(morpholino)methanone]
[1]
  EC50: < 10 nM

## Cc1cccc2c(Nc3ccc(Cl)cc3Cl)ncc(C(=O)N3CCOCC3)c12 [Example-90, (1-((2,4-Dichlorophenyl)amino)-5-methylisoquinolin-4-yl)(morpholino)methanone]
[1]
  EC50: < 10 nM

## Cc1ccc(Nc2ncc(C(=O)N3CCCCC3)c3c(C)cccc23)cc1Cl [Example-92, (1-((3-Chloro-4-methylphenyl)amino)-5-methylisoquinolin-4-yl)(piperidin-1-yl)methanone]
  EC50: < 10 nM

## Cc1cc(Nc2ncc(C(=O)N3CCCCC3)c3c(C)cccc23)ccc1F [Example-94, (1-((4-Fluoro-3-methylphenyl)amino)-5-methylisoquinolin-4-yl)(piperidin-1-yl)methanone]
  EC50: < 10 nM

## Cc1c(F)cccc1Nc1ncc(C(=O)N2CCCCC2)c2c(C)cccc12 [Example-96, (1-((3-Fluoro-2-methylphenyl)amino)-5-methylisoquinolin-4-yl)(piperidin-1-yl)methanone]
  EC50: < 10 nM

## Cc1cccc2c(Nc3cccc(Cl)c3)ncc(C(=O)N3CCCC3)c12 [Example-102, (1-((3-Chlorophenyl)amino)-5-methylisoquinolin-4-yl)(pyrrolidin-1-yl)methanone]
  EC50: 10 to 1000 nM

## O=C(c1cnc(Nc2cccc(Cl)c2)c2cccc(C3CC3)c12)N1CCOCC1 [Example-114, (1-((3-Chlorophenyl)amino)-5-cyclopropylisoquinolin-4-yl)(morpholino)methanone]
  EC50: < 10 nM

## O=C(c1cnc(Nc2cccc(F)c2F)c2cccc(C3CC3)c12)N1CCOCC1 [Example-116]
[1]
  EC50: < 10 nM

## O=C(c1cnc(Nc2cccc(C(F)(F)F)c2)c2cccc(C3CC3)c12)N1CCOCC1 [Example-118, (5-Cyclopropyl-1-((3-(trifluoromethyl)phenyl)amino)isoquinolin-4-yl)(morpholino)methanone]
  EC50: < 10 nM

## O=C(c1cnc(Nc2cccc(C(F)(F)F)c2F)c2cccc(C3CC3)c12)N1CCOCC1 [Example-119, (5-Cyclopropyl-1-((2-fluoro-3-(trifluoromethyl)phenyl)amino)isoquinolin-4-yl)(morpholino)methanone]
[1]
  EC50: < 10 nM

## CCc1cccc2c(Nc3cccc(F)c3F)ncc(C(=O)N3CCCCC3)c12 [Example-124, (1-((2,3-Difluorophenyl)amino)-5-ethylisoquinolin-4-yl)(piperidin-1-yl)methanone]
[1]
  EC50: < 10 nM

## CCc1cccc2c(Nc3cccc(Cl)c3F)ncc(C(=O)N3CCCCC3)c12 [Example-128, (1-((3-Chloro-2-fluorophenyl)amino)-5-ethylisoquinolin-4-yl)(piperidin-1-yl)methanone]
  EC50: < 10 nM

## CCc1cccc2c(Nc3cccc(C(F)(F)F)c3F)ncc(C(=O)N3CCCCC3)c12 [Example-129, (5-Ethyl-1-((2-Fluoro-3-(trifluoromethyl)phenyl)amino)isoquinolin-4-yl)(piperidin-1-yl)methanone]
[1]
  EC50: < 10 nM

## CCc1cccc2c(Nc3cccc(Cl)c3C)ncc(C(=O)N3CCCCC3)c12 [Example-131, (1-((3-Chloro-2-methylphenyl)amino)-5-ethylisoquinolin-4-yl)(piperidin-1-yl)methanone]
[1]
  EC50: < 10 nM

## Cc1cccc(Nc2ccc(C(=O)N3CCOCC3)c3c(C)cccc23)c1 [Example-150, (8-Methyl-4-(m-tolylamino)naphthalen-1-yl)(morpholino)methanone]
[1]
  EC50: < 10 nM

## Cc1ccc(Nc2ccc(C(=O)N3CCOCC3)c3c(C)cccc23)cc1F [Example-152, (4-((3-Fluoro-4-methylphenyl)amino)-8-methylnaphthalen-1-yl)(morpholino)methanone]
  EC50: < 10 nM

## COc1cccc(Nc2ccc(C(=O)N3CCCCC3)c3c(C)cccc23)c1 [Example-161, (4-((3-Methoxyphenyl)amino)-8-methylnaphthalen-1-yl)(piperidin-1-yl)methanone]
[1]
  EC50: < 10 nM

## Cc1cccc2c(Nc3cccc(F)c3F)ccc(C(=O)N3CC4CC4C3)c12 (stereo not drawn) [Example-166, 3-Azabicyclo[3.1.0]hexan-3-yl(4-((2,3-difluorophenyl)amino)-8-methylnaphthalen-1-yl)methanone]
[1]
  EC50: < 10 nM
